This assay deals with glucocorticoid receptor (GAL4 DBD-GR) (Homo sapiens (Human), UniProt P04150). The assay is described as follows: GR cell-based assays (GRE agonist / GRE antagonist), CHO-Gal4/GR luciferase reporter. The gist of the method:
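CHO cells stably carrying GAL4 DBD-GR ligand-binding-domain fusion and a GAL4-UAS firefly luciferase reporter were treated in Opti-MEM with 8 half-log concentrations from 10 μM to 0.003 μM (0.5% DMSO, quadruplicates). Antagonist mode measured repression of beclomethasone-induced signal. Luminescence after lysis gave EC50 or IC50.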
In general terms: Reporter assays use an easily measured gene product as a stand-in for the process of interest.

Like-named read-outs stand apart in the source and are kept apart here.

In general, IC50 refers to the point on the concentration scale where inhibition reaches its midpoint.

glucocorticoid receptor (GAL4 DBD-GR), sequence (P04150 524-758): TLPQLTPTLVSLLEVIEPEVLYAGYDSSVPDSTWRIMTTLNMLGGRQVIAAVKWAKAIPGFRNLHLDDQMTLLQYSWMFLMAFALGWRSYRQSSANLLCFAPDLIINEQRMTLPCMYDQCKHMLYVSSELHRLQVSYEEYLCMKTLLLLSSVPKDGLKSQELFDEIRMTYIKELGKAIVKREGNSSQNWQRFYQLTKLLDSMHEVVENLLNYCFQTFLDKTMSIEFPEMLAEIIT

On to `CC1(C)C(=O)N(c2ccc3c(cnn3-c3ccc(F)cc3)c2)[C@@H](c2ccccc2)[C@@H]1NC(=O)c1cnco1` [Example 36b, N-((2S,3R)-1-(1-(4-fluorophenyl)-1H-indazol-5-yl)-4,4-dimethyl-5-oxo-2-phenylpyrrolidin-3-yl)oxazole-5-carboxamide], for which the IC50 (read-out: IC50 or EC50) lay within 100 to 1000 nM.

For `Cc1cccc([C@@H]2[C@@H](NC(=O)c3scnc3C)[C@H](C)C(=O)N2c2ccc3c(cnn3-c3ccc(F)cc3)c2)c1` (racemic) [Example 67, N-[rac-(2R,3S,4S)-1-[1-(4-Fluorophenyl)-1H-indazol-5-yl]-4-methyl-2-m-tolyl-5-oxo-pyrrolidin-3-yl]-4-methyl-thiazole-5-carboxylic acid amide], where the note is “read-out: IC50 or EC50”, the IC50 was below 100 nM. With `CC[C@@H]1[C@@H](NC(=O)c2ccn(C)n2)[C@H](Cc2ccccc2)C(=O)N1c1ccc2c(cnn2-c2ccc(F)cc2)c1` (racemic) [Example 104, N-[rac-(2R,3S,4S)-4-Benzyl-2-ethyl-1-[1-(4-fluorophenyl)-1H-indazol-5-yl]-5-oxo-pyrrolidin-3-yl]-1-methyl-1H-pyrazole-3-carboxylic acid amide], the half-maximal inhibitory concentration (IC50) (read-out: IC50 or EC50) was in the range of 1000 to 15000 nM.

In the case of `C[C@H]1C(=O)N(c2ccc3c(cnn3-c3ccc(F)cc3)c2)[C@H](c2ccc(Cl)s2)[C@H]1NC(=O)C1CC1` (racemic) [Example 124, N-[rac-(2S,3S,4R)-2-(5-Chloro-thiophen-2-yl)-1-[1-(4-fluorophenyl)-1H-indazol-5-yl]-4-methyl-5-oxo-pyrrolidin-3-yl]-cyclopropanecarboxylic acid amide], the IC50 (read-out: IC50 or EC50) was below 100 nM. Still for that read-out and setting: the figure for `Cc1cccc([C@@H]2[C@@H](NC(=O)C(C)(F)F)[C@@H](C)C(=O)N2c2ccc3c(cnn3-c3ccc(F)cc3)c2)c1` (racemic) [Example 77, 2,2-Difluoro-N-[rac-(2R,3S,4R)-1-[1-(4-fluorophenyl)-1H-indazol-5-yl]-4-methyl-2-m-tolyl-5-oxo-pyrrolidin-3-yl]-propionamide] is below 100 nM; for `CC[C@@H]1[C@@H](NC(=O)C(C)(F)F)[C@H](Cc2ccccc2)C(=O)N1c1ccc2c(cnn2-c2ccc(F)cc2)c1` (racemic) [Example 107, N-[rac-(2R,3S,4S)-4-Benzyl-2-ethyl-1-[1-(4-fluorophenyl)-1H-indazol-5-yl]-5-oxo-pyrrolidin-3-yl]-2,2-difluoro-propionamide] it is 1000 to 15000 nM; for `C[C@@H]1C(=O)N(c2ccc3c(cnn3-c3ccc(F)cc3)c2)[C@H](c2ccccc2Cl)[C@H]1NS(C)(=O)=O` (racemic) [Example 93, N-[rac-(2R,3S,4S)-2-(2-Chlorophenyl)-1-[1-(4-fluorophenyl)-1H-indazol-5-yl]-4-methyl-5-oxo-pyrrolidin-3-yl]-methanesulfonic acid amide] it is below 100 nM.

For `C[C@@H]1C(=O)N(c2ccc3c(cnn3-c3ccc(F)cc3)c2)[C@H](c2ccccc2Cl)[C@H]1NC(=O)C1CC1` (racemic) [Example 112, N-[rac-(2R,3S,4S)-2-(2-Chlorophenyl)-1-[1-(4-fluorophenyl)-1H-indazol-5-yl]-4-methyl-5-oxo-pyrrolidin-3-yl]-cyclopropanecarboxylic acid amide], the IC50 (read-out: IC50 or EC50) is 100 to 1000 nM. `Cc1noc(C[C@@H]2C(=O)N(c3ccc4c(cnn4-c4ccc(F)cc4)c3)[C@H](c3ccccc3)[C@H]2NC(=O)C2CC2)n1` [Example 138, N-((2R,3S,4S)-1-(1-(4-fluorophenyl)-1H-indazol-5-yl)-4-((3-methyl-1,2,4-oxadiazol-5-yl)methyl)-5-oxo-2-phenylpyrrolidin-3-yl)cyclopropanecarboxamide]: the IC50 (read-out: IC50 or EC50) was in the range of 100 to 1000 nM. Compound `CC1(C)C(=O)N(c2ccc3c(cnn3-c3ccc(F)cc3)c2)[C@H](c2ccccc2)[C@H]1NC(=O)c1cccnc1` [Example 42a, N-((2R,3S)-1-(1-(4-fluorophenyl)-1H-indazol-5-yl)-4,4-dimethyl-5-oxo-2-phenylpyrrolidin-3-yl)nicotinamide] returned an IC50 (CHO-Gal4/GR reporter cells, agonist mode (EC50) or antagonist mode against beclometasone (IC50), 6 hour incubation) below 100 nM.

The values above are taken from US12358907B2, “Substituted pyrrolidine amides III” (GRÜNENTHAL GMBH, priority 2019, dated 2025).
